Experiments:
[1] = biological target: T1, Plant p-Hydroxyphenylpyruvate Dioxygenase (Arabidopsis enzyme overexpressed in E. coli) (Arabidopsis thaliana, UniProt P93836); experiment: continuous spectrophotometric enol borate-tautomerase assay with overexpressed protein; type: biochemical
T1 construct: The first 11 cycles identified […]; initiator Met (ATG start codon put in front of Ser30 by oligos CAM32/CAM33) (N, cleaved yes); made in house; host or cells: E. coli BL21(DE3) carrying pE24CP1 (pET24c(+) backbone), IPTG-induced; cell extract
T1 sequence (P93836 30-445): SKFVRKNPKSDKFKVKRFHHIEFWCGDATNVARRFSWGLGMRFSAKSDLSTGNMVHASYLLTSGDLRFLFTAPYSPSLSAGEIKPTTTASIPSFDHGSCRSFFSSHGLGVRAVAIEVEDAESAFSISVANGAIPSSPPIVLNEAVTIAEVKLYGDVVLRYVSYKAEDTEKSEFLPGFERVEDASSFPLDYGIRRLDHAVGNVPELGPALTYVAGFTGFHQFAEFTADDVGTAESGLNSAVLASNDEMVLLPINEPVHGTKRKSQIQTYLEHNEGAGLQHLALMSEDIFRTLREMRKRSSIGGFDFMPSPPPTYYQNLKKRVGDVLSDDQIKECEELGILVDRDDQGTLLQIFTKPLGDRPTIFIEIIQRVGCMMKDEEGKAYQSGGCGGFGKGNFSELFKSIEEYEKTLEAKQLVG
Description: The overexpressed protein was also assayed spectrophotometrically at ambient temperature using the enol borate-tautomerase assay (Lin, E. C. C. et al., (1958) J. Biol. Chem. 233:668-673). The assay buffer contained 0.4 M borate (adjusted to pH 7.2 with 0.2 M sodium borate), 4 mM ascorbate, 2.5 mM EDTA, 40 μM p-hydroxyphenylpyruvate, and 0.5 units of tautomerase (Sigma T-6004) per 10 mL buffer. The reaction mix was used when the tautomerization of the substrate was complete (when absorbance at 308 nm had stabilized). The assay was initiated by adding 40 μL of the cell extracts to 960 μL of the assay buffer, and the reaction was followed by measuring the decrease in absorbance at 308 nm.
(§1) The enzymatic activity of the overexpressed protein is inhibited by two herbicides known to inhibit plant p-hydroxyphenylpyruvate dioxygenase: Sulcotrione (2-(2-chloro-4-methanesulfonylbenzoyl)-1,3-cyclohexanedione); and Isoxaflutole (5-cyclopropylisoxazol-4-yl 2-mesyl-4-trifluoromethylphenyl ketone). These two compounds were tested against the overexpressed protein using both the ^14CO2 and the continuous spectrophotometric enol borate-tautomerase assays. Both compounds were added to the assay buffers in 10 μL of acetone or dimethyl sulfoxide. The I50 values (concentration inhibiting the enzyme 50%) were calculated based on the percent inhibition observed over several concentrations of the inhibitor.

[2] = biological target: T1, Plant p-Hydroxyphenylpyruvate Dioxygenase (Arabidopsis enzyme overexpressed in E. coli); experiment: 14CO2 release assay from 14C-p-hydroxyphenylpyruvate with overexpressed protein; type: biochemical
Description: Cell cultures with different plasmid constructs were extracted as described above and assayed by measuring the formation of ^14Co2 from [1-^14C]-p-hydroxyphenylpyruvate or ^14CO2 and ^14C-homogentisate from [U-^14C]-p-hydroxyphenylpyruvate (Lindblad, B., (1971) Clin. Chim. Acta 34:113-121; and Lindstedt, S. and Odelhog, B., (1987) Methods in Enzymology 142:143-148). The labeled substrate was prepared from [1-^14C]-L-tyrosine (55 mCi/mmol; American Radiolabeled Chemicals, Inc., St. Louis, Mo.) or [U-^14C]-L-tyrosine (498 mCi/mmol; DuPont NEN, Boston, Mass.). […]
The assay was performed in 14 mL culture tubes capped with serum stoppers through which a polypropylene well containing 200 μL of 1 N KOH was suspended. […] Six mL of Formula-989 scintillation fluid (Packard Insturments, Meriden, Conn.) was added to the vials and the ^14C radioactivity was determined by scintillation counting.
as §1, with “These two compounds were tested against the overexpressed protein using both the ^14CO2 and the continuous spectrophotometric enol borate-tautomerase assays. Both compounds were added to the assay buffers in 10 μL of acetone or dimethyl sulfoxide.” left out

[3] = storage stability of purified enzyme constructs, activity by tautomerase coupled spectrophotometric assay; type: physicochemical, Arabidopsis thaliana; conditions: 1 mg/mL in 20 mM bis tris-propane buffer pH 7.2, 5 mM ascorbate, 1 mM reduced glutathione, 0.1 mM ferrous ammonium sulfate, stored at 4 °C
Description: Two different constructs for Arabidopsis thaliana p-hydroxyphenyl-pyruvate dioxygenase, one containing the full-length sequence, PDO-B as described in Example 5 and produced from plasmid pE24PDO-B, and one containing the truncated sequence lacking the putative chloroplast leader sequence, PDO-A as produced from plasmid pE24CP1, were both purified to the same extent using a Pharmacia phenyl Sepharose hydrophobic interaction column followed by gel filtration chromatography on Pharmacia Sephacryl 300. The two proteins were diluted to 1 mg/mL in 20 mM bis tris-propane buffer, pH 7.2 containing 5 mM ascorbate, 1 mM reduced glutathione and 0.1mM ferrous ammonium sulfate and stored in a refrigerator at 4 ° C. for up to 10 days. Aliquots were removed at various times and assayed for activity using the tautomerase coupled spectrophotometric assay. […] In addition, the activity of the full length enzyme could be restored by incubation with iron and reducing agent, reduced glutathione or ascorbate, or by dialysis against buffer containing iron and reducing agent. In contrast, the activity of the truncated enzyme could not be restored by incubation with or dialysis against buffer containing iron and reducing agent.

Molecule `CS(=O)(=O)c1cc(C(F)(F)F)ccc1C(=O)c1cnoc1C1CC1` [isoxaflutole, 5-cyclopropylisoxazol-4-yl 2-mesyl-4-trifluoromethylphenyl ketone] has an IC50 ([1]; concentration inhibiting the enzyme 50%, absorbance at 308 nm, read-out: I50 value derived from spectrophotometric assay) of 1040 nM and an IC50 ([2]; concentration inhibiting the enzyme 50%, inhibitor added in 10 μL acetone or dimethyl sulfoxide, read-out: I50 value derived from 14CO2 assay) of 409 nM.

`CS(=O)(=O)c1ccc(C(=O)C2C(=O)CCCC2=O)c(Cl)c1` [sulcotrione, 2-(2-chloro-4-methanesulfonylbenzoyl)-1,3-cyclohexanedione] showed an IC50 [1] of 44 nM and an IC50 [2] of 43 nM.

B1: PDO-B: full-length Arabidopsis thaliana p-hydroxyphenylpyruvate dioxygenase produced from plasmid pE24PDO-B (protein, UniProt P93836 1-445, looked up)
chain: MGHQNAAVSENQNHDDGAASSPGFKLVGFSKFVRKNPKSDKFKVKRFHHIEFWCGDATNVARRFSWGLGMRFSAKSDLSTGNMVHASYLLTSGDLRFLFTAPYSPSLSAGEIKPTTTASIPSFDHGSCRSFFSSHGLGVRAVAIEVEDAESAFSISVANGAIPSSPPIVLNEAVTIAEVKLYGDVVLRYVSYKAEDTEKSEFLPGFERVEDASSFPLDYGIRRLDHAVGNVPELGPALTYVAGFTGFHQFAEFTADDVGTAESGLNSAVLASNDEMVLLPINEPVHGTKRKSQIQTYLEHNEGAGLQHLALMSEDIFRTLREMRKRSSIGGFDFMPSPPPTYYQNLKKRVGDVLSDDQIKECEELGILVDRDDQGTLLQIFTKPLGDRPTIFIEIIQRVGCMMKDEEGKAYQSGGCGGFGKGNFSELFKSIEEYEKTLEAKQLVG
modifications: full-length
With B1 the “half-life for the activity” value [3] was 96 h.
